Reference: patent US8193203B2, “Bicyclic compounds having activity at the CXCR4 receptor” (Allergan, Inc., priority 2008, dated 2012)

Biological target: T1, human CXCR4 receptor (Homo sapiens, UniProt P61073)
T1 construct: expressed in transfected cells
Test: Measurement of intracellular Ca+2 responses (FLIPR), antagonism of the SDF-1α response
Format: cell-based
Conditions: for IC50: HEK-Gqi5 cells stably expressing human CXCR4, Fluo-4 FLIPR, antagonism of SDF-1α 1.9 nM (EC65); for CXCR4 (% Inh): percent antagonism of SDF-1α 1.9 nM (EC65) response, HEK-Gqi5 human CXCR4 cells, value in brackets
In short: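 HEK-Gqi5 cells stably expressing CXCR4, Fluo-4-loaded (2 uM, 40 min, 37 °C), read on FLIPR. Compound (2.44-40,000 nM) added first for agonism, then SDF-1α at 1.9 nM final (EC65); IC50 and percent antagonism from second-addition calcium signal.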

T1 sequence (P61073 whole entry): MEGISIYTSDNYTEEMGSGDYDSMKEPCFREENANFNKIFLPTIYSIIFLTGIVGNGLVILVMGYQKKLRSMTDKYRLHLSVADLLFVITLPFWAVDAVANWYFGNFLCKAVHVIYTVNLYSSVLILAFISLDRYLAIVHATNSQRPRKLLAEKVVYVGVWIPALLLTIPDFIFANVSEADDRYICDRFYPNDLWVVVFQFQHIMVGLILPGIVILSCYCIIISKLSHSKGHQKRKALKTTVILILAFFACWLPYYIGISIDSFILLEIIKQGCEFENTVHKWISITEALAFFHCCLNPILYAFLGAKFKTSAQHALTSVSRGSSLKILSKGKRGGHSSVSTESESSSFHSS

Row | Compound | IC50 (values given in μM) | CXCR4 (% Inh) | IC50 (values in nM) | IC50 (unit of the source corrected, heading: CXCR4 IC50, values given in μM)
1 | COc1cccc(N(C)C)c1CN1CCC(Nc2nc(N3CCN(C(C)=O)CC3)nc3ccccc23)CC1 [Compound 86, 1-(4-(4-(1-(2-(Dimethylamino)-6-methoxybenzyl)piperidin-4-ylamino)quinazolin-2-yl)piperazin-1-yl)ethanone] | 3.5 µM | 86% |  | 
2 | COc1cccc(N(C)C)c1CN1CCC(Nc2nc(NCCN(C)C)nc3ccccc23)CC1 [Compound 153, N˜2˜-[2-(Dimethylamino)ethyl]-N˜4˜-{1-[2-(dimethylamino)-6-methoxybenzyl]piperidin-4-yl}quinazoline-2,4-diamine] |  | 98% | 0.118 µM | 
3 | CCN(CC)CCCCNc1nc(NC2CCN(Cc3c(OC)cccc3N(C)C)CC2)c2ccccc2n1 [Compound 66, N2-(4-(Diethylamino)butyl)-N4-(1-(2-(dimethylamino)-6-methoxybenzyl)piperidin-4-yl)quinazoline-2,4-diamine] |  | 93% | 0.2 µM | 
4 | COCCCNc1nc(NC2CCN(Cc3c(OC)cccc3N(C)C)CC2)c2ccccc2n1 [Compound 87, N4-(1-(2-(Dimethylamino)-6-methoxybenzyl)piperidin-4-yl)-N2-(3-methoxypropyl)quinazoline-2,4-diamine] |  | 96% | 0.81 µM | 
5 | CCN(CC)CCCNc1nc(NC2CCN(Cc3ccccc3N3CCCC3)CC2)c2cc(OC)c(OC)cc2n1 [Compound 51] | 1.1 µM | 92% |  | 
6 | COc1cc2nc(NCCc3ncc[nH]3)nc(NC3CCN(Cc4c(OCCN(C)C)cccc4N(C)C)CC3)c2cc1OC [Compound 210, N˜4˜-(1-{2-(Dimethylamino)-6-[2-(dimethylamino)ethoxy]benzyl}piperidin-4-yl)-N˜2˜-[2-(1H-imidazol-2-yl)ethyl]-6,7-dimethoxyquinazoline-2,4-diamine] |  | 97% | 0.065 µM | 
7 | CCN(CC)CCCNc1nc(NC2CCN(Cc3c(OCCN(C)C)cccc3N(C)C)CC2)c2cc(OC)c(OC)cc2n1 [Compound 166, N˜2˜-[3-(Diethylamino)propyl]-N˜4˜-(1-{2-(dimethylamino)-6-[2-(dimethylamino)ethoxy]benzyl}piperidin-4-yl)-6,7-dimethoxyquinazoline-2,4-diamine] |  | 94% | 0.049 µM | 
8 | COc1cccc(N(C)C)c1CN1CCC(Nc2nc(NC[C@H]3CCNC3)nc3ccccc23)CC1 [Compound 111, (S)—N-4-(1-(2-(Dimethylamino)-6-methoxybenzyl)piperidin-4-yl)-N2-(pyrrolidin-3-ylmethyl)quinazoline-2,4-diamine] |  | 98% |  | 0.224 µM
9 | COc1cccc(N(C)C)c1CN1CCC(Nc2nc(N(CCO)C(C)=O)nc3ccccc23)CC1 [Compound 90, N-(4-(1-(2-(Dimethylamino)-6-methoxybenzyl)piperidin-4-ylamino)quinazolin-2-yl)-N-(2-hydroxyethyl)acetamide] | 1.5 µM | 93% |  | 
10 | COc1cccc(N(C)C)c1CN1CCC(Nc2nc(NCCCN(C)C)nc3ccccc23)CC1 [Compound 68, N4-(1-(2-(Dimethylamino)-6-methoxybenzyl)piperidin-4-yl)-N2-(3-(dimethylamino)propyl)quinazoline-2,4-diamine] |  | 95% | 0.041 µM | 
11 | COc1cc2nc(NCC(O)CN)nc(NC3CCN(Cc4c(OCCN(C)C)cccc4N(C)C)CC3)c2cc1OC (stereo not shown) [Compound 196, 1-Amino-3-({4-[(1-{2-(dimethylamino)-6-[2-(dimethylamino)ethoxy]benzyl}piperidin-4-yl)amino]-6,7-dimethoxyquinazolin-2-yl}amino)propan-2-ol] |  | 95% | 0.038 µM | 
12 | COc1cccc(N(C)C)c1CN1CCC(Nc2nc(NCC(F)(F)F)nc3ccccc23)CC1 [Compound 93, N4-(1-(2-(Dimethylamino)-6-methoxybenzyl)piperidin-4-yl)-N2-(2,2,2-trifluoroethyl)quinazoline-2,4-diamine] | 4.3 µM | 79% |  | 
13 | COc1cccc(N(C)C)c1CN1CCCC(Nc2nc(NCCCN(C)C)nc3ccccc23)CC1 (stereo not shown) [Compound 174, N˜4˜-{1-[2-(Dimethylamino)-6-methoxybenzyl]azepan-4-yl}-N˜2˜-[3-(dimethylamino)propyl]quinazoline-2,4-diamine] |  | 97% | 0.77 µM | 
14 | CCN(CC)CCNc1nc(NC2CCN(Cc3ccccc3N(C)C)CC2)c2cc(OC)c(OC)cc2n1 [Compound 32] |  | 90% | 0.343 µM | 
15 | COc1cc2nc(NCCN(C)C)nc(NC3CCN(Cc4c(OCCN5CCCC5)cccc4N(C)C)CC3)c2cc1OC [Compound 193, N˜2˜-[2-(Dimethylamino)ethyl]-N˜4˜-{1-[2-(dimethylamino)-6-(2-pyrrolidin-1-ylethoxy)benzyl]piperidin-4-yl}-6,7-dimethoxyquinazoline-2,4-diamine] |  | 95% | 0.065 µM | 
16 | CCN(CC)CCCNc1nc(NC2CCN(Cc3ccccc3N)CC2)c2ccccc2n1 [Compound 149, N˜4˜-[1-(2-Aminobenzyl)piperidin-4-yl]-N˜2˜-[3-(diethylamino)propyl]quinazoline-2,4-diamine] | > 10 µM | 68% |  | 
17 | COc1cccc(N(C)C)c1CN1CCC(Nc2nc(NCCc3c[nH]cn3)nc3ccccc23)CC1 [Compound 119, N2-(2-(1H-Imidazol-4-yl)ethyl)-N4-(1-(2-(dimethylamino)-6-methoxybenzyl)piperidin-4-yl)quinazoline-2,4-diamine] |  | 96% | 0.387 µM | 
18 | COc1cccc(N(C)C)c1CN1CCC(Nc2nc(NCCCNC(=O)OC(C)(C)C)nc3ccccc23)CC1 [Compound 225, tert-Butyl-3-(4-(1-(2-(dimethylamino)-6-methoxybenzyl)piperidin-4-ylamino)quinazolin-2-ylamino)propylcarbamate] |  | 88% | 0.614 µM | 
19 | COc1cc2nc(NCc3cn(C)cn3)nc(NC3CCN(Cc4c(OCCN(C)C)cccc4N(C)C)CC3)c2cc1OC [Compound 215, N˜4˜-(1-{2-(Dimethylamino)-6-[2-(dimethylamino)ethoxy]benzyl}piperidin-4-yl)-6,7-dimethoxy-N˜2˜-[(1-methyl-1H-imidazol-4-yl)methyl]quinazoline-2,4-diamine] |  | 99% | 0.073 µM | 
20 | CCOP(=O)(CCCNc1nc(NC2CCN(Cc3c(OC)cccc3N(C)C)CC2)c2ccccc2n1)OCC [Compound 81, Diethyl 3-(4-(1-(2-(Dimethylamino)-6-methoxybenzyl)piperidin-4-ylamino)quinazolin-2-ylamino)propylphosphonate] | 1.6 µM | 99% |  | 
21 | COc1cccc(N(C)C)c1CN1CCC(Nc2nc(NCC3CCCO3)nc3ccccc23)CC1 (stereo not shown) [Compound 98, N4-(1-(2-(Dimethylamino)-6-methoxybenzyl)piperidin-4-yl)-N2-((tetrahydrofuran-2-yl)methyl)quinazoline-2,4-diamine] |  | 98% | 0.624 µM | 
22 | COc1cc2nc(NCc3nccs3)nc(NC3CCN(Cc4c(OCCN(C)C)cccc4N(C)C)CC3)c2cc1OC [Compound 205, N˜4˜-(1-{2-(Dimethylamino)-6-[2-(dimethylamino)ethoxy]benzyl}piperidin-4-yl)-6,7-dimethoxy-N˜2˜-(1,3-thiazol-2-ylmethyl)quinazoline-2,4-diamine] |  | 100% | 0.032 µM | 
23 | COc1cccc(N(C)C)c1CN1CCC(Nc2nc(NC[C@@H]3CCN(C(=O)OC(C)(C)C)C3)nc3ccccc23)CC1 [Compound 112, (S)-tert-Butyl 3-((4-(1-(2-(Dimethylamino)-6-methoxybenzyl)piperidin-4-ylamino)quinazolin-2-ylamino)methyl)pyrrolidine-1-carboxylate] | 2.1 µM | 77% |  | 
